The record followed here is BindingDB's records for doi:10.1016/j.chembiol.2011.03.012 (Riken Advanced Science Institute, 2011).

The structures appear in SMILES notation.

Sequence of DNA topoisomerase 2-alpha (P11388 whole entry): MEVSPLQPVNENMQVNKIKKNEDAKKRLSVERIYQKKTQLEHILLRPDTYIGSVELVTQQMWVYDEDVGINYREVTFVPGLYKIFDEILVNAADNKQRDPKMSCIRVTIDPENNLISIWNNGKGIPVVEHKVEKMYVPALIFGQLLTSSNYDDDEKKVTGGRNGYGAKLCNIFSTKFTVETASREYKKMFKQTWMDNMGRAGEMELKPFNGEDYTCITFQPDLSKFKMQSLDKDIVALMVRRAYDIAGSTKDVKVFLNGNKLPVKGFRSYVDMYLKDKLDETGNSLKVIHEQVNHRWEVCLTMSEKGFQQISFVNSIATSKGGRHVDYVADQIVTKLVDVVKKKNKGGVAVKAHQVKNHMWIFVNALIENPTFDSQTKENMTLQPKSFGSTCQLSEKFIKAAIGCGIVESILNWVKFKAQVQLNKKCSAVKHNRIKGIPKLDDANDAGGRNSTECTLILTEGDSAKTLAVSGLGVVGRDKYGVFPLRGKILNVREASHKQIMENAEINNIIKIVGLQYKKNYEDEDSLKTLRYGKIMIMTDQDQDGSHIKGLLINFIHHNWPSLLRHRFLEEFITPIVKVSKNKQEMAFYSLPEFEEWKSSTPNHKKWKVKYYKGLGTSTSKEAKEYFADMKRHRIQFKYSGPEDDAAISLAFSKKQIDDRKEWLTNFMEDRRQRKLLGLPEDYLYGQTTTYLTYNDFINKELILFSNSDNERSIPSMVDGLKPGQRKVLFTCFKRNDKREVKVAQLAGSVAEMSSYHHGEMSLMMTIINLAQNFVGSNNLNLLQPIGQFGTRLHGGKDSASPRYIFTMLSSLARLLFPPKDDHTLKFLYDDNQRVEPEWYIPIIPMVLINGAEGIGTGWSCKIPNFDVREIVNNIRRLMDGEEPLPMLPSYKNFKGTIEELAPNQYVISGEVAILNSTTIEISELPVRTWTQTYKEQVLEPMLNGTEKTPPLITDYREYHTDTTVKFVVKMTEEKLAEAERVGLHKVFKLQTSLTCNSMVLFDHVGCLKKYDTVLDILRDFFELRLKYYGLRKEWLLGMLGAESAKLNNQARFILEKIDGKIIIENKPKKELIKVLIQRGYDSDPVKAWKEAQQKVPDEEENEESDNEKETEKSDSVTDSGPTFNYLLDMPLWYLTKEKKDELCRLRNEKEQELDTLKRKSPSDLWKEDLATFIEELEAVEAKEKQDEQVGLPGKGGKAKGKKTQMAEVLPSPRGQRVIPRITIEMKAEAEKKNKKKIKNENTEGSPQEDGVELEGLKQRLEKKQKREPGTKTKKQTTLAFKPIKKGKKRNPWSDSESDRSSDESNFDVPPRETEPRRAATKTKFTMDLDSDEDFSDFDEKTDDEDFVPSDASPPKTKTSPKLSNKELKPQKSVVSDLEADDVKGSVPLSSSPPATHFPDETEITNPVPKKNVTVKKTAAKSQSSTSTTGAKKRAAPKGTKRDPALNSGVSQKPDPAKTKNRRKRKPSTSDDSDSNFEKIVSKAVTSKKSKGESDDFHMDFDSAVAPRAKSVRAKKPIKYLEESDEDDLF

The target of this assay is DNA topoisomerase 2-alpha (Homo sapiens, UniProt P11388). Briefly: Inhibition Assay. To be noted: pH 7.5; 4 °C. The text has this:
In vitro inhibition of TOP2 alpha activity by BNS derivatives.
The compound `CCCc1cc(=O)oc2c(C(=O)N3CCC(Cc4ccccc4)CC3)c(OC)cc(OC)c12` [BNS-53] came in with an IC50 above 100 µM.

In the case of `CCCc1cc(=O)oc2c(C(=O)N3CCc4ccccc4C3)c(OC)cc(OC)c12` [BNS-52], the IC50 is above 100 µM.

As for `CCCc1cc(=O)oc2c(C(=O)N3CCCc4ccccc43)c(OC)cc(OC)c12` [BNS-22], the half-inhibitory concentration (IC50) was found to be 2.8 µM.

As to `COC(=O)Cc1cc(=O)oc2c(C(=O)N3CCCc4ccccc43)c(OC)cc(OC)c12` [BNS-65], 8.2 µM corresponded to half-maximal inhibition (IC50).

As for `CCCc1cc(=O)oc2c(C(=O)N3CCCCC3)c(OC)cc(OC)c12` [BNS-54], the IC50 was above 100 µM.

In general, IC50 refers to the concentration that gives 50% inhibition. Lower therefore signals greater potency.
